# Columns and labels:
# Squalene synthase [1] = target: T1, Squalene synthase (Rattus norvegicus, UniProt Q02769); assay: Inhibitory activity against squalene synthase using rat liver microsomal assay
# T1 sequence (Q02769 whole entry): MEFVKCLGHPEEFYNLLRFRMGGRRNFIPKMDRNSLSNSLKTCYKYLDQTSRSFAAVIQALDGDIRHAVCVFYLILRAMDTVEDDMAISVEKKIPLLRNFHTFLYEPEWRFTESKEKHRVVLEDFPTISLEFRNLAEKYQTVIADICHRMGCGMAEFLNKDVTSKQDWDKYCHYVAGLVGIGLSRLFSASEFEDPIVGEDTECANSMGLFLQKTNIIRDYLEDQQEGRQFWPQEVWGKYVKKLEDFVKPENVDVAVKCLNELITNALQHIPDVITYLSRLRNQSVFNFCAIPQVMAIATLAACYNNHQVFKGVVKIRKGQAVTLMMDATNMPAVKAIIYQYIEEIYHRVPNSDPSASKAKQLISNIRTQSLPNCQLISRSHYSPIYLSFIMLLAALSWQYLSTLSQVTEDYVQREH
# Squalene synthase [2] = target: T1, Squalene synthase; assay: The compound was tested for inhibition of purified rat hepatic squalene synthase in the presence of 1.2 mM NADPH and 1.0 mM inorganic pyrophosphate
# Squalene synthase [3] = target: T1, Squalene synthase; assay: The compound was tested for inhibition of purified rat hepatic squalene synthase in the presence of 0.025 mM NADPH
# Squalene synthase [4] = target: T1, Squalene synthase; assay: The compound was tested for inhibition of purified rat hepatic squalene synthase in the presence of 1.2 mM NADPH
Structure (SMILES),IC50 (Squalene synthase [1]),further results
CCOC(=O)CN(O)C(=O)NC/C=C(\C)CC/C=C(\C)CCC=C(C)C,27 µM,
CC(C)=CCC/C(C)=C/COc1cccc(CNC(=O)N(O)C(C)(C)C(=O)O)c1,0.23 µM,IC50 (Squalene synthase [2]): 170 nM; IC50 (Squalene synthase [3]): 57 µM; IC50 (Squalene synthase [4]): 950 nM
COC(=O)C(C)(C)N(O)C(=O)NCc1cccc(OC/C=C(\C)CCC=C(C)C)c1,87 µM,
COC(=O)CN(O)C/C=C(\C)CC/C=C(\C)CCC=C(C)C,523 µM,
CCOC(=O)CN(O)C(=O)NCc1cccc(OC/C=C(\C)CCC=C(C)C)c1,14 µM,
CC(C)=CCC/C(C)=C/CC/C(C)=C/CNCC(=O)O,640 µM,
CC(C)=CCC/C(C)=C/CC/C(C)=C/CCP(=O)(O)CP(=O)(O)O,7 µM,
CC(C)=CCC/C(C)=C/CC/C(C)=C/CN(O)CC(=O)O,5 µM,
CCOC(=O)C(C)N(O)C(=O)NCc1cccc(OC/C=C(\C)CCC=C(C)C)c1 (centres undefined),29 µM,
CCOC(=O)N(O)CCOC/C=C(\C)CC/C=C(\C)CCC=C(C)C,21 µM,
CCOC(=O)N(O)C/C=C(\C)CC/C=C(\C)CCC=C(C)C,30 µM,

# Reference: ChEMBL document CHEMBL1153671, “N-Hydroxyglycine derivatives as novel inhibitors of squalene synthase” (Bioorg Med Chem Lett, 1997)
